The record followed here is US11118160B2, “Probiotic composition for enhancing an insects resistance to a pesticide” (The Regents of the University of California, priority 2017, dated 2021).

SMILES strings stand for the structures.

In data set [1] the test system is Acetobacter in the insect gut. As to the kind of experiment: Remodeling of the gut microbiome in response to pesticide exposure (FIG. 1). The class given is in vivo, Drosophila melanogaster. The settings on record: exposure of flies. The method, then:
(§1) The immediate and long-term responses of the gut microbiome to the top ten most utilized herbicides in the United States are measured using the model organism Drosophila melanogaster. By utilizing both gnotobiotic and wild-type flies in these perturbations, effects specifically due to the microbiome are isolated. Based on the results of the fly model, compounds are tested in mice in pre-adolescent exposure scenarios and long-term effects. As in the fly, genomic and metabolomics techniques are used. Detailed, life course assays throughout 12-week span would provide an extensive map of the dynamic composition of mammalian gut microbiomes. Identification of microbiome chemical and genetic interactions are obtained by utilizing the collaborative cross mice and also specified microbial compositions. Pesticide-induced changes in behavior are correlated with changes in the microbiome, while controlling for genetic background.
AIM 1 Screen 20 most commonly used agricultural pesticides in the United States. Determine which pesticides impact microbiome composition in adult flies, leveraging the viability of germ-free animals and rapid life cycle. Measure the immediate (2 hrs) and long-term (10 days) responses of the microbiome to exposure using methods described below.
1C) 16S-seq and microarray of microbiome before and after perturbation to quantify all microbial species and their transcriptomes. […]

In data set [2] the test system is Drosophila melanogaster. As to the kind of experiment: Fly behavioral phenotype after pesticide exposure. The class given is in vivo. The settings on record: exposed flies. An excerpt: 1D) Automated behavioral screening in 2D population cages with social affinity, aggression, and mating behavioral quantitative phenotypes. These are ideal because they integrate many aspects of the perturbed animal system, and will allow one skilled in the art to identify subtle neurological phenotypes may be missed by other modalities.
Fly behavioral studies: A 2D cage design with CCD video and fly tracking software is utilized widely by the community (19270697). This techniques enables the automated quantification of social affinity, aggression, and mating behavioral phenotypes.

The subject of data set [3] is Drosophila melanogaster. As to the kind of experiment: Host genome-wide transcription response to chronic pesticide exposure (FIGS. 4-5). The class given is in vivo. Conditions: 2 mM atrazine. An excerpt: 1C) 16S-seq and microarray of microbiome before and after perturbation to quantify all microbial species and their transcriptomes. For treatments with strong effects, sequence the fly gut transcriptome (RNA-seq) to determine gene networks and pathways affected by exposure.

Data set [4] relates to Drosophila melanogaster. Nature of the data set: Survival of wild-type and gnotobiotic / germ free flies exposed to atrazine (FIGS. 5-6). The format is in vivo. The method, then: as §1
Axenic adult flies are generated and exposures are recapitulated. […] Further, GF flies are fully rescued and wild-type survival curves are restored by feeding flies the bacterial culture prior to exposure. Similar rescue experiments with other microbes are attempted, none of which are rescued.

`C[n+]1ccc(-c2cc[n+](C)cc2)cc1` [Paraquat, paraquat]: the “effect on Acetobacter in the insect gut” value in data set [1] is reported as “induce the collapse of Acetobacter”.

In the case of `CCNc1nc(Cl)nc(NC(C)C)n1` [Atrazine, atrazine], in data set [1], the “effect on Acetobacter in the insect gut” value was “induce the collapse of Acetobacter”. For the same compound, the behavioral phenotype induced entry in the data set with Drosophila melanogaster [2] is given as “induces a hyperactive phenotype”. Moreover, the “host response to exposure (transcription)” value in the data set with Drosophila melanogaster [3] is on record as “induces an adaptive response associated largely with the transport of lipids”. Also, the “survival of exposed germ free (GF) flies vs control flies with wild-type microbiomes” value in the data set with Drosophila melanogaster [4] (axenic adult flies) was “die earlier than control flies”. In addition, the “lethality to the host” value with Drosophila melanogaster [4] (flies, extremely high doses) is given as “not deadly at extremely high doses”. Further, the “susceptibility to toxicity, gnotobiotic flies lacking the atrazine metabolism pathway vs wild-type strains” value in the data set with Drosophila melanogaster [4] (gnotobiotic flies vs wild-type strains having the pathway) is on record as “significantly more susceptible to toxicity”.
